Assay [1] deals with T1, ADRA2C (alpha-2C adrenergic receptor) (Homo sapiens, UniProt P18825).
T1 construct: Tango construct (TEV cleavage site and tTA, as described for the dopamine receptor plasmids); host or cells: HTLA (HEK 293-derived)
Description: PRESTO-Tango β-arrestin 2 recruitment assay, ADRA2C. The class given is cell-based. To be noted: 500 nM. As for the experimental part:
(§1) The HTLA cell line was used for the PRESTO-Tango β-arrestin recruitment assay. The HTLA cells were provided as a gift from the laboratory of Bryan Roth (Roth Lab, USA). It is a human cell line derived from human embryonic kidney cells (HEK 293) stably expressing β-arrestin in a fusion with the tobacco etch virus protease (TEV) protease and the luciferase gene under the control of the transcription factor tetracycline transcriptional activator (tTA). The HTLA cells were cultured under standard incubation conditions (37 °C, 5% CO2, 95% humidity) in DMEM with 10% FBS. […]
(§2) The transfected HTLA cells were incubated for 24 h, and then 1 × 10^4 cells were seeded per well of a white 96-well clear bottom plate (Brand, Germany) in 40 μL of DMEM with 1% charcoal-stripped FBS (Thermo Fisher Scientific, USA). […] After 5 min., the luminescence was measured using a multi-mode microplate reader SpectraMax iD5 (Molecular Devices, San Jose, CA, USA) measuring the entire wavelength spectrum. All samples were measured in quadruplicates. The data were evaluated by Prism 7 software (GraphPad, […], CA, USA). […]
(§3) The error bar represents standard deviation from four replicates. The data were processed and evaluated by GraphPad Prism Software using one-way ANOVA: * p<0.05; ** p<0.01; *** […]
In general terms: Recruitment of arrestin is a read-out of receptor activation apart from second messengers.

Assay [2] deals with T2, ADRB2 (beta-2 adrenergic receptor) (Homo sapiens, UniProt P07550).
T2 construct: Tango construct (TEV cleavage site and tTA, as described for the dopamine receptor plasmids); host or cells: HTLA (HEK 293-derived)
Put plainly: PRESTO-Tango β-arrestin 2 recruitment assay, ADRB2. The class given is cell-based. The method, then:
as §1, §2, §3

A further assay relates to MRC-5 cells. Put plainly: Fluorescence microscopy of cell morphology, MRC-5. The assay is classed as cell-based, human. To be noted: MRC-5, 24-h treatment, 100-500 µM. The text has this:
In addition to the evaluation of IBMcat cytotoxicity in various cell lines, its impact on cell morphology was also examined in CaCo-2 and MRC-5 cells after 24-h treatment. F-actin and cell nuclei were visualized in these cells treated with 100, 300, and 500-µM concentrations of IBMcat and its enantiomers. IBMcat (Figure 7) induced a considerable change in CaCo-2 cell morphology already from 300-µM concentration, the cells were smaller, bore roundish shapes, and grew in clusters when compared to control untreated cells. This could be ascribed to the substantial toxicity of IBMcat manifested already after 24 h at this concentration. No difference was observed between the individual enantiomers.
A total of 1 × 10^5 CaCo-2 and MRC-5 cells were seeded into 35-mm glass-bottom dishes for live-cell imaging ((#1.5, MatTek, USA; Ibidi dishes, Germany). After 16 h, the cells were gently washed with phosphate-buffered saline (PBS; pH 7.4), and then, cultivation media containing 100–500 µM IBMCat was added. Untreated cells and cells treated with the vehicle served as controls. After 24 h of the cell incubation with IBMCat, the cells were gently washed with PBS and then fixed with a 4% solution of formaldehyde (methanol-free, Thermo Fisher, USA) in PBS for 20 min. at 22 °C in the dark. Then, the fixative was discarded, and the cells were washed twice with PBS. […]

Assay [3] addresses T3, HTR2B (5-hydroxytryptamine receptor 2B) (Homo sapiens, UniProt P41595).
T3 construct: Tango construct (TEV cleavage site and tTA, as described for the dopamine receptor plasmids); host or cells: HTLA (HEK 293-derived)
Put plainly: PRESTO-Tango β-arrestin 2 recruitment assay, HTR2B. The assay is classed as cell-based. To be noted: 0-500 nM. As for the experimental part: as §1
The transfected HTLA cells were incubated for 24 h, and then 1 × 10^4 cells were seeded per well of a white 96-well clear bottom plate (Brand, Germany) in 40 μL of DMEM with 1% charcoal-stripped FBS (Thermo Fisher Scientific, USA). […] After 5 min., the luminescence was measured using a multi-mode microplate reader SpectraMax iD5 (Molecular Devices, San Jose, CA, USA) measuring the entire wavelength spectrum. All samples were measured in quadruplicates. The data were evaluated by Prism 7 software (GraphPad, San Jose, CA, USA).
Figure S13: β-arrestin 2 recruitment PRESTO-Tango assay: activation of the serotonin receptors. […] The data were processed and evaluated by GraphPad Prism Software using one-way […]

In assay [4] the target is T4, ADRA2B (alpha-2B adrenergic receptor) (Homo sapiens, UniProt P18089).
T4 construct: Tango construct (TEV cleavage site and tTA, as described for the dopamine receptor plasmids); host or cells: HTLA (HEK 293-derived)
Description: PRESTO-Tango β-arrestin 2 recruitment assay, ADRA2B. The class given is cell-based. To be noted: 500 nM. As for the experimental part: as §1, §2, §3

Where a name gives a salt, the structure may show the parent alone.

T2 sequence (P07550 whole entry): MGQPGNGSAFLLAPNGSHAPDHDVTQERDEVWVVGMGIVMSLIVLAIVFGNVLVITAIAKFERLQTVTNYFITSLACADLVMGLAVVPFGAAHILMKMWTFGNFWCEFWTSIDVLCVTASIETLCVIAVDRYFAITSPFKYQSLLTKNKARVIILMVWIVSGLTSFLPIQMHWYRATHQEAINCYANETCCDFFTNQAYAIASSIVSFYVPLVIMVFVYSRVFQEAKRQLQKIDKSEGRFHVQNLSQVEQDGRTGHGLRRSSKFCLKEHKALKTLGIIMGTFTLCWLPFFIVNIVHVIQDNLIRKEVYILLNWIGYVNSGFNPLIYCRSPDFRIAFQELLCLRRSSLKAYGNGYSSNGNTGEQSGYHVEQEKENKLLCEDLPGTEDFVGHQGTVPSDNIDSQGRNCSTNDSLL
T1 sequence (P18825 whole entry): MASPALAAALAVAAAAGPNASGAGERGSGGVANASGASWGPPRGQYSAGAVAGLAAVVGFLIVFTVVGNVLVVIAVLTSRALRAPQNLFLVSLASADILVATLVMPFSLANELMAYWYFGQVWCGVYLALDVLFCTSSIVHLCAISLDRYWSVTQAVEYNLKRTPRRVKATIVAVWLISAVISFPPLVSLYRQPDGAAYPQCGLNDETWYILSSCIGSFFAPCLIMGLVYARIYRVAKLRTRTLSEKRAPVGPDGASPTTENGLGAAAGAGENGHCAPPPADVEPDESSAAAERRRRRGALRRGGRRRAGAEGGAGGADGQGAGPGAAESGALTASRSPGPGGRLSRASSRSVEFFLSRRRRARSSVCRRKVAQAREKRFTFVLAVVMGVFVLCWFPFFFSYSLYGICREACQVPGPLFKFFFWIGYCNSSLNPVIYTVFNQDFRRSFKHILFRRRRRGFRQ
T3 sequence (P41595 whole entry): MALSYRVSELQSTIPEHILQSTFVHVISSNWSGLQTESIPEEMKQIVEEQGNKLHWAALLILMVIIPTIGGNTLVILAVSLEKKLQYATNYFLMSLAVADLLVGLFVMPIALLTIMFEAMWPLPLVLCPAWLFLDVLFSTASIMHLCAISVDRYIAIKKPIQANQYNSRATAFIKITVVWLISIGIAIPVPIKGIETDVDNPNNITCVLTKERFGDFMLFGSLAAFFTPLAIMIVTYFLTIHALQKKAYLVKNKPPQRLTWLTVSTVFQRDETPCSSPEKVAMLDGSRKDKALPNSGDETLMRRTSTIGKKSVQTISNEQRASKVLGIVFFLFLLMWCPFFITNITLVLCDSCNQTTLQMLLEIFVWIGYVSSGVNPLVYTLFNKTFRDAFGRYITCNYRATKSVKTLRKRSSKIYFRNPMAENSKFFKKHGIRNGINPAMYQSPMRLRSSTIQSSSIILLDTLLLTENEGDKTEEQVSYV
T4 sequence (P18089 whole entry): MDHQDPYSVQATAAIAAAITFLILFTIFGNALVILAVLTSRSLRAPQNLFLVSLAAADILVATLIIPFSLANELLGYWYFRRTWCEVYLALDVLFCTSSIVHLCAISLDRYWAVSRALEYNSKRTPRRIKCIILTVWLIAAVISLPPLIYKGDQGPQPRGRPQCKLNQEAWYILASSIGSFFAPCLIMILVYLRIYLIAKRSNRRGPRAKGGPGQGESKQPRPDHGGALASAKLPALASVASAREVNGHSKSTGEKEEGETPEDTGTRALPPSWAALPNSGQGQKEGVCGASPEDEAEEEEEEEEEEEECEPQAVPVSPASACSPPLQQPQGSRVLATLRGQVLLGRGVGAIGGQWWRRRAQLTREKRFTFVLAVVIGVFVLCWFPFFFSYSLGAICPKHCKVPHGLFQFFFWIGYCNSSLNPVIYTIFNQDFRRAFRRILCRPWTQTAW

As for `CNC(C)C(=O)c1ccc(CC(C)C)cc1.Cl` (stereo not shown) [IBMcat, 4-isobutylmethcathinone hydrochloride], the “increase in RLU compared to untreated control” value in assay [1] turned out to be 3.7 fold; in assay [4], 1.5 fold. In addition, the “increase in the luminescence signal” value in assay [2] (ADRB2, 50 and 100 nM) came to 1.5 fold. Besides, the “cell number compared with control” value with MRC-5 cells is given as “considerably lesser cells than in the control”. Also, the “effect on cell shape” value with MRC-5 cells is reported as “did not induce any shape-related effect”. Further, the “agonistic activity for HTR2B” value in assay [3] is “did not exhibit any agonistic activity”.

Turning to `CN[C@@H](C)C(=O)c1ccc(CC(C)C)cc1` [S-IBMCat, (S)-4-isobutylmethcathinone hydrochloride], the “increase in the luminescence signal” value in assay [2] (ADRB2, 1 and 5 nM) is reported as 1.5 fold.
